Where two headings read alike, the source gives them in different places.
Tests used:
[1] = test system: established adjuvant-induced arthritis in rats; test: Established adjuvant-induced arthritis in rats (therapeutic, paw volume); type: in vivo, Charles River Lewis male rats; conditions: Rattus norvegicus
[2] = test system: plaque forming (antibody producing) spleen cells of rats with adjuvant-induced arthritis; test: Modified Jerne spleen cell hemolytic plaque assay; type: in vivo, rats (Charles River Lewis); conditions: for effect on number of plaque forming cells (PFC): arthritic rats
Method: MODIFIED JERNE SPLEEN CELL HEMOLYTIC PLAQUE ASSAY
A modification of the technique described by N. K. Jerne and A. A. Nordin (Science, 140, 450, 1963) was used in these studies. Rats (Charles River Lewis) with adjuvant-induced arthritis (and non-arthritic controls) were dosed orally ounce per day with PVA-Acacia vehicle* or compounds in vehicle from day 14 (following adjuvant injection) to day 20. The animals were sensitized with sheep red blood cells (SRBC) (0.2 ml of a 10% suspension=[…]) I.V. on day 17. The SRBC (Microbiological Associates) were washed 3 times in 0.9% sodium chloride solution prior to injection. On day 21 the rats were anesthetized with 1% sodium pentobarbital I.P. and the spleens were removed. Each spleen was placed on a stainless steel screen suspended over a plastic beaker in an ice bath and gently macerated with a glass syringe plunger. The cells were washed through the mesh into the beaker using a pasteur pipette to apply about 10 ml of Eagle's Minimal Essential Medium (MEM) during the maceration process until only fibrous material remained on the screen. Large particles were allowed to settle out for about 5 minutes and about 5 ml of supernatant was transferred to a plastic tube. Dilutions of 1:10 and 1:20 were made in cold MEM.
Plating: 2 ml of 0.7% Agarose (1.4% diluted 1:2 with 2X Eagles MEM) and 0.2 ml of a 10% SRBC suspension were pre-warmed in a 45° C. water bath. 20 Lambda of spleen cell dilution were added, mixed gently and poured into a supporting layer of 2 ml of 1.4% Agarose in a 60×15 mm plastic petri plate. Plates were incubated at 37° C. for 1.5 hours in a humidified incubator. 1.5 ml of guinea pig complement (diluted 1:10 with MEM) was added and incubation was continued for 1 hour longer.
Zones of hemolysis (plaques) per plate were counted without magnification against a diffuse light source. Assuming each plaque to have resulted from hemolysin produced by a single spleen cell, the number of plaque forming cells (PFC) per million spleen cells was calculated for each dilution. The statistical calculations (mean, standard error and "t" test) included the PFC/million count for each dilution of each spleen.

[3] = test system: immunologic reactions / rheumatoid arthritis; conditions: background; cited from earlier work
[4] = test system: B lymphocytes in spleen cell suspensions; conditions: for effect on B lymphocyte proportion / lymphocyte population: arthritic rats
[5] = test system: non-established adjuvant-induced arthritis in rats; test: Non-established adjuvant-induced arthritis in rats (prevention of development, paw volume); type: in vivo, Charles River Lewis male rats; conditions: for ED50: Rattus norvegicus, read-out: ED50% non-established arthritis; for effectiveness in preventing development of arthritis compared with treating established arthritis: non-established vs established arthritis, rats
Method: Non-Established Adjuvant-Induces Arthritis in Rats
A test used primarily to determine the effects of compounds on the immunological reactions involved in the induction process and to prevent the development of arthritis.
Charles River Lewis male rats (130-150 grams) are injected subcutaneously in the plantar area of the right hind paw with 0.1 ml of adjuvant (Difco heat-killed, lyophilized Mycobacterium butyricum suspended in mineral oil 5 mg/ml). 40 Non-arthritic controls are injected with mineral oil. Groups of 20 rats are given single, daily oral doses of compound (in PVA-Acacia vehicle, 10 ml/kg) or vehicle by gavage beginning immediately following paw injection for a total of 14 doses. The paw volume of the uninjected (left) hind paw is measured 24 hours after the last dose using a Ugo Basile Volume differential meter Model 7101. The ED50% decrease from control is determined as described above.

[6] = po, Table V, read-out: ED50% established arthritis
[7] = Table V, oral, 14 daily doses from adjuvant injection

Compound | ED50 [1, 6] | effect on number of plaque forming cells (PFC) [2] | effect on B lymphocyte proportion / lymphocyte population [4] | ED50 [5, 7] | effectiveness in preventing development of arthritis compared with treating established arthritis [5] | effect on immunologic reactions in rheumatoid inflammation [3] | further results
O=P1(N(CCCl)CCCl)NCCCO1 (stereo not shown) [Cyclophosphamide, reference compound] | 10 mg/kg | reduced the PFC far below normal | reduced the B lymphocyte proportion to below normal | 1.5 mg/kg | more effective in preventing the development of arthritis in rats than in treating established arthritis in rats |  | mean plaque forming cells per million spleen cells (N = 20) ([2]; daily oral dose 5.0 mg/kg): 25 cells per million spleen cells; effectiveness in treatment of rheumatoid arthritis [3]: effective in the treatment of rheumatoid arthritis; toxicity for wide-spread use [3]: too toxic for wide-spread use; mean % B cells ([4]; daily oral dose 5 mg/kg): 25%
O=S(=O)(c1nc(-c2ccc(F)cc2)c(-c2ccc(F)cc2)[nH]1)C(F)(F)C(F)F [Example 71, 4,5-bis(4-fluorophenyl)-2-(1,1,2,2-tetrafluoroethylsulfonyl)imidazole] | 0.03 mg/kg |  |  | 0.03 mg/kg |  |  | ED50 ([1]; po, established arthritis, 7 daily doses, ED50% decrease from control paw volume, Tables I-III, read-out: Adjuvant Arthritis (ED50%)): 0.025 mg/kg; mean plaque forming cells per million spleen cells (N = 20) ([2]; daily oral dose 0.03 mg/kg): 499 cells per million spleen cells; mean plaque forming cells per million spleen cells (N = 20) ([2]; daily oral dose 0.3 mg/kg): 439 cells per million spleen cells; mean % B cells ([4]; daily oral dose 0.03 mg/kg, pooled data from 3 experiments (N = 15)): 38%; mean % B cells ([4]; daily oral dose 0.3 mg/kg, pooled data from 3 experiments (N = 15)): 41%
COc1ccc2c(c1)c(CC(=O)O)c(C)n2C(=O)c1ccc(Cl)cc1 [Indomethacin, reference compound] |  | had no effect on the number of PFC | had no effect on the lymphocyte population |  | less effective in preventing the development of arthritis in rats than in treating the inflammation in established arthritis | have no effect on these immunologic reactions | ED50 ([1]; Table V, oral, read-out: ED50% established arthritis): 0.3 mg/kg; mean plaque forming cells per million spleen cells (N = 20) ([2]; daily oral dose 1.0 mg/kg): 694 cells per million spleen cells; mean % B cells ([4]; daily oral dose 0.5 mg/kg): 57%; ED50 ([5]; po): 3 mg/kg
CCCCC1C(=O)N(c2ccccc2)N(c2ccccc2)C1=O [Phenylbutazone] | 10 mg/kg |  |  | 35 mg/kg | less effective in preventing the development of arthritis in rats than in treating the inflammation in established arthritis | have no effect on these immunologic reactions | mean % B cells ([4]; daily oral dose 20 mg/kg): 53%
CC(=O)Oc1ccccc1C(=O)O [aspirin] |  |  |  |  |  | have no effect on these immunologic reactions | 
CC(C)Cc1ccc(C(C)C(=O)O)cc1 (stereo not shown) [ibuprofen] |  |  |  |  |  | have no effect on these immunologic reactions | 

Reference: patent US4190666A, “Anti-inflammatory 4,5-diarly-2-(substituted-thio)imidazoles and their corresponding sulfoxides and sulfones” (E. I. Du Pont de Nemours and Company, priority 1978, dated 1980)
